± gives the standard deviation of the averaged measurements.
Tests used:
Assay in all cases: level (log10 ratio to DMSO vehicle control); higher = higher biomarker level / cell amount than vehicle control
[1] = compound: O=C(O)C(F)(F)C(F)(F)C(F)(F)C(F)(F)C(F)(F)C(F)(F)C(F)(F)F [Ammonium perfluorooctanoate]; conditions: in DMSO
Protocol: (§1)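 BioMAP Diversity Plus panel of 12 human primary cell co-culture systems (3C, 4H, LPS, SAg, BT, BF4T, BE3C, CASM3C, HDF3CGF, KF3CT, MyoF, Mphg). Compounds were added 1 h before stimulation and left for 24 h (MyoF 48 h; BT 72 h for soluble read-outs or 6 d for IgG). Biomarkers were read by ELISA, cytotoxicity by SRB, PBMC viability and proliferation by Alamar Blue. Each well value was divided by the mean of 8 DMSO control wells on the same plate and log10 transformed; duplicate blinded samples were tested at 4 concentrations.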

Methotrexate = compound: CN(Cc1cnc2nc(N)nc(N)c2n1)c1ccc(C(=O)N[C@@H](CCC(=O)O)C(=O)O)cc1 [Methotrexate]; conditions: in DMSO
Protocol: as §1

[2] = compound: OCCCC(F)(F)C(F)(F)C(F)(F)C(F)(F)C(F)(F)C(F)(F)C(F)(F)C(F)(F)F [3-(Perfluorooctyl)propanol]; conditions: 6700 nM; in DMSO
Protocol: as §1

[3] = compound: FC(F)(I)C(F)(F)C(F)(F)C(F)(F)C(F)(F)C(F)(F)I [1,6-Diiodoperfluorohexane]; conditions: 6700 nM; in DMSO
Protocol: as §1

[4] = compound: O=S(=O)(O)CCC(F)(F)C(F)(F)C(F)(F)C(F)(F)F [4:2 Fluorotelomer sulfonic acid]; conditions: in DMSO
Protocol: as §1

[5] = compound: C=CC(=O)OCC(F)(F)C(F)(F)C(F)(F)C(F)(F)COC(=O)C=C [1H,1H,6H,6H-Perfluorohexane-1,6-diol diacrylate]; conditions: 6700 nM; in DMSO
Protocol: as §1

Perfluorooctanoic acid = compound: O=C(O)C(F)(F)C(F)(F)C(F)(F)C(F)(F)C(F)(F)C(F)(F)C(F)(F)F [Perfluorooctanoic acid]; conditions: in DMSO
Protocol: as §1

[6] = compound: OCC(F)(F)C(F)(F)C(F)(F)C(F)(F)C(F)(F)C(F)(F)C(F)(F)C(F)(F)CO [1H,1H,10H,10H-Perfluorodecane-1,10-diol]; conditions: in DMSO
Protocol: as §1

| Test System | level (log10) ([1]; 6700 nM) | level (log10) ([1]; 20000 nM) | level (log10) ([1]; 60000 nM) | level (log10) (Methotrexate; 1500 nM) | level (log10) (Methotrexate; 4400 nM) | level (log10) (Methotrexate; 13000 nM) | level (log10) (Methotrexate; 40000 nM) | level (log10) [2] | level (log10) [3] | level (log10) ([4]; 6700 nM) | level (log10) ([4]; 20000 nM) | level (log10) ([4]; 60000 nM) | level (log10) [5] | level (log10) (Perfluorooctanoic acid; 6700 nM) | level (log10) (Perfluorooctanoic acid; 20000 nM) | level (log10) (Perfluorooctanoic acid; 60000 nM) | level (log10) ([6]; 6700 nM) | level (log10) ([6]; 20000 nM) | level (log10) ([6]; 60000 nM) |
| --- | --- | --- | --- | --- | --- | --- | --- | --- | --- | --- | --- | --- | --- | --- | --- | --- | --- | --- | --- |
| BE3C:CXCL8/IL-8 | 0.043 ± 0.021 | 0.0095 ± 0.039 | -0.066 ± 0.04 | 0.0795 ± 0.069 | 0.035 ± 0.089 | 0.053 ± 0.057 | 0.048 ± 0.11 | -0.046 ± 0.011 | 0.011 | 0.0165 ± 0.023 | -0.009 ± 0.0085 | 0.0175 ± 0.0064 | -0.095 ± 0.013 | -0.029 ± 0.055 | -0.0165 ± 0.057 | -0.0385 ± 0.0035 | -0.078 ± 0.0099 | -0.098 ± 0.025 | -0.127 |
| LPS:SRB | -0.006 ± 0.0071 | -0.0065 ± 0.00071 | -0.0245 ± 0.005 | -0.0005 ± 0.013 | 0.001 | 0.0015 ± 0.00071 | 0.005 ± 0.011 | -0.033 ± 0.018 | 0.012 | -0.0085 ± 0.0021 | -0.003 ± 0.0085 | -0.011 ± 0.018 | -0.0065 ± 0.0092 | -0.01 ± 0.011 | 0.0085 ± 0.012 | -0.0265 ± 0.0064 | 0.0005 ± 0.016 | -0.012 ± 0.017 | -0.042 |
| BT:sTNF-alpha | -0.033 ± 0.038 | -0.0095 ± 0.12 | 0.001 ± 0.13 | -0.067 ± 0.072 | -0.137 ± 0.11 | -0.0565 ± 0.023 | -0.0905 ± 0.1 | -0.0805 ± 0.029 | -0.145 | 0.0815 ± 0.16 | -0.063 ± 0.021 | 0.0095 ± 0.012 | -0.698 ± 0.042 | 0.0755 ± 0.044 | 0.097 ± 0.047 | 0.166 ± 0.11 | -0.017 ± 0.085 | -0.007 ± 0.031 | -0.762 |
| SAg:CXCL8/IL-8 | -0.0325 ± 0.026 | 0.007 ± 0.013 | 0.127 ± 0.16 | 0.023 ± 0.037 | -0.0215 ± 0.022 | -0.004 ± 0.02 | 0.0195 ± 0.052 | -0.0165 ± 0.028 | -0.012 | -0.048 ± 0.093 | -0.007 ± 0.052 | 0.034 ± 0.042 | -0.102 ± 0.011 | 0.015 ± 0.016 | 0.0165 ± 0.028 | 0.0745 ± 0.029 | -0.0125 ± 0.037 | -0.01 ± 0.018 | -0.051 |
| SAg:PBMC Cytotoxicity | 0.011 ± 0.035 | 0.049 ± 0.011 | 0.052 ± 0.04 | -0.001 ± 0.017 | 0.0015 ± 0.023 | 0.011 ± 0.018 | 0.0005 ± 0.0035 | -0.003 ± 0.023 | 0.026 | 0.0015 ± 0.013 | -0.007 ± 0.031 | 0.02 ± 0.0014 | -0.066 ± 0.038 | 0.0195 ± 0.0021 | 0.022 ± 0.0085 | 0.042 ± 0.016 | 0.009 | 0.0155 ± 0.036 | -0.155 |
| BE3C:CXCL10/IP-10 | 0.0065 ± 0.015 | -0.0135 ± 0.00071 | -0.163 ± 0.061 | 0.003 ± 0.051 | 0.0105 ± 0.032 | 0.0195 ± 0.019 | 0.011 ± 0.038 | -0.009 ± 0.0099 | 0.008 | -0.0055 ± 0.00071 | -0.006 ± 0.0085 | -0.0035 ± 0.011 | -0.0095 ± 0.0064 | -0.021 ± 0.017 | -0.0275 ± 0.013 | -0.118 ± 0.022 | -0.0205 ± 0.013 | -0.19 ± 0.088 | -0.94 |
| 3C:HLA-DR | -0.005 ± 0.0042 | 0 ± 0.0014 | 0.004 ± 0.016 | -0.014 ± 0.031 | -0.012 ± 0.038 | -0.013 ± 0.025 | -0.011 ± 0.03 | -0.03 ± 0.0028 | -0.005 | -0.019 ± 0.0028 | -0.0095 ± 0.0078 | -0.005 ± 0.028 | -0.025 ± 0.011 | 0.0035 ± 0.0092 | -0.008 ± 0.028 | 0.0155 ± 0.043 | -0.039 ± 0.02 | -0.031 ± 0.021 | -0.131 |
| BT:PBMC Cytotoxicity | -0.0115 ± 0.047 | -0.009 ± 0.033 | 0.0565 ± 0.015 | -0.037 ± 0.0071 | -0.0455 ± 0.0021 | -0.0635 ± 0.0078 | -0.049 ± 0.035 | 0.021 ± 0.028 | 0.035 | 0.0075 ± 0.023 | 0 ± 0.0014 | 0.0435 ± 0.03 | -0.186 ± 0.0042 | -0.001 ± 0.028 | 0.0565 ± 0.013 | 0.105 ± 0.033 | 0.0065 ± 0.026 | -0.012 ± 0.0085 | -0.246 |
| BT:sIL-17F | -0.0405 ± 0.13 | -0.0495 ± 0.094 | -0.0615 ± 0.14 | -0.039 ± 0.11 | -0.02 ± 0.025 | -0.064 ± 0.088 | -0.179 ± 0.075 | -0.101 ± 0.015 | 0.06 | -0.0025 ± 0.0035 | -0.009 ± 0.13 | 0.077 ± 0.021 | -0.816 ± 0.025 | 0.032 ± 0.04 | 0.0665 ± 0.11 | 0.095 ± 0.035 | -0.123 ± 0.064 | -0.054 ± 0.1 | -0.619 |

Reference: the supplement of paper PMC10331698
